Tests used:
[1] = Triglyceride analysis in liver, serum and stool; type: in vivo, mouse; settings: HFD+NCT vs HFD
Protocol: The TG level in mouse liver, serum and stool was measured according to manufacturer's instructions using the Triglyceride Calorimetric Assay Kit (Cat #10010303, Cayman Chemicals, USA). Liver and stool TG was normalized with liver and stool weight, respectively. Fold change was calculated by normalizing to values from mice fed NC.

cleaved caspase3 = test: Cleaved caspase3 immunostaining; type: in vivo, mouse; settings: mice fed HFD with vs without NCT
Protocol: Frozen liver sections were permeabilized using 0.3% Triton-X and incubated in antigen retrieval solution (Antigen retrieval citrate, Biogenex) at sub-boiling temperature for 10 min. Subsequently, sections were incubated with blocking buffer containing 5% normal donkey serum (Jackson Immuno Research) followed by incubation overnight at 4° C. with mouse anti-HNF4α monoclonal antibody (1:800, Cat #PP-H1415-00, R&D Systems), rabbit polyclonal anti-VDAC antibody (1:400, cat #PA1-954A, Invitrogen) and cleaved caspase3 antibody (1:500, cat #9664, Cell Signaling). Sections were washed and incubated for 1 hour at room temperature with anti-mouse secondary antibody coupled with Alexa fluor 488 (1:400, Invitrogen) and antirabbit secondary antibody coupled with rhodamine red. Nuclei were visualized by counterstaining with DAPI (40,6-diamidino-2-phenylindole, Sigma Aldrich). Slides were mounted using fluorescence mounting medium and images were obtained at 40× magnification using an Olympus IX71 fluorescence microscope. Fluorescence intensity of HNF4α-stained nuclei and VDAC stained mitochondria was calculated using MetaMorph TL software (version 7.6.5.0, Olympus). Fold change was calculated by normalizing to values from mice fed NC. […]

HSP60 mRNA = test: qPCR mouse liver, HSP60 mRNA; type: in vivo; settings: HFD+NCT vs HFD
Protocol: (§1) Total RNA was isolated from liver tissues and primary human hepatocytes using Trizol (Invitrogen). cDNA was amplified using 3 μg of total RNA using qScript cDNA SuperMix (Quanta BioSciences, Beverly, MA, USA). Quantitative real time PCR (RT-PCR) analysis was performed using SYBR® Select Master Mix (Applied Biosystems) and an ABI 7900HT thermal cycler (Applied Biosystems, Thermo Fisher Scientific). Ct values were normalized to 18s rRNA and are expressed as fold change over samples from mice fed NC or cultured human hepatocytes without NCT.

IL-6 mRNA = test: qPCR mouse liver, IL-6 mRNA; type: in vivo; settings: HFD+NCT vs HFD
Protocol: as §1

palmitate-loaded cells = test: Fat clearance from palmitate-loaded cells; type: cell-based; settings: in vitro
TNFα mRNA = test: qPCR mouse liver, TNFα mRNA; type: in vivo; settings: HFD+NCT vs HFD
Protocol: as §1

Sirt1 mRNA = test: qPCR mouse liver, Sirtuin1 mRNA; type: in vivo; settings: HFD+NCT vs HFD
Protocol: as §1

IL-1P mRNA = test: qPCR mouse liver, IL-1β mRNA; type: in vivo; settings: HFD+NCT vs HFD
Protocol: as §1

[2] = Oil red O staining of liver sections; type: in vivo, mouse; settings: HFD+NCT vs HFD, 10 weeks
Protocol: Oil red O staining was performed as described previously (34). Slides containing frozen liver tissue sections from mice were air dried for 10-20 min followed by rehydration in distilled water. Sections were immersed in absolute propylene glycol (Cat #151957, MP Biomedicals, LLC, USA) for 2 min followed by 0.5% in Oil red O solution (Cat #K043, Poly Scientific R&D, USA) for 2 hours. Slides were then differentiated in 85% propylene glycol solution, washed with dH2O for 2 hours, and mounted using glycerin jelly mounting medium. All slides were scanned at a magnification of 20× using the Aperio Scanscope FL system (Aperio Technologies Inc., Vista, CA, USA). The liver area stained with oil red O was measured using image J software as described, with some modifications as follow, Oil red O-stained liver images were opened in Image J software. Using the Analyze>Set Scale command, the scale bar of the images was set to 200 um. RGB images were then converted into gray scale images using the Image>Type>RGB Stack command and were split into red, blue and green channels. Using the Image >Adjust>Threshold command, the threshold was manually set to highlight the Oil red O stained lipid droplets in the green channel. […] Fold change was calculated by normalizing the values to images from mice fed normal chow.

PPARGC1A (PGC1α) = test: Western blot, mouse liver, PPARGC1A; type: in vivo; settings: ten weeks of oral NCT
Protocol: Mouse liver extracts were prepared by incubation in RIPA buffer (Invitrogen) containing protease inhibitors (Calbiochem, San Diego, CA). Protein was quantified by BCA assay (Thermo Scientific). Protein ([…] for cytochrome C) was separated on 12% or 16% Tri-Glycine gels (Invitrogen) and transferred to Immobilon P membrane (0.2 μm pore size, Millipore). After 1 hour in phosphate-buffered saline-Tween (PBST) with 3% milk, membranes were incubated with antibodies to PPARGC1A(PGC1α) (Cat #NBP1-04676, Novus, 1:1000), SDHA XP (Cat #11998, Cell Signaling 1:1000), or Cytochrome C (Cat #4280, Cell Signaling 1:500), followed by secondary antibody conjugated to horseradish peroxidase (1:5000, Jackson Immune or Cell Signaling). […] After detection, membrane was incubated with Ponceau S solution (Sigma) for 1 hr for normalization to loaded protein.

O=C(/C=C/c1ccc(O)c(O)c1)NCCc1ccc(O)cc1 [NCT, N-transcaffeoyltyramine]
hepatic TG ([1]; normalized to liver weight): lower TG | circulating TG ([1]; serum, 10 weeks): no difference | Caspase 3, marker of apoptosis (cleaved caspase3): no change | HSP60 mRNA in mouse liver (HSP60 mRNA): greatly decreased | IL-6 mRNA in mouse liver (IL-6 mRNA): significantly reduced | fat clearance from palmitate-loaded cells (palmitate-loaded cells): induced fat clearance | TNFα mRNA in mouse liver (TNFα mRNA): significantly reduced | Sirt1 mRNA in mouse liver (effect of HFD) (Sirt1 mRNA): almost completely reversed | ILI p expression (FIG. 5C, mouse liver) (IL-1P mRNA): not significantly changed | Oil Red O staining of liver [2]: decreased Oil Red O staining | PPARGC1A protein in mouse liver (PPARGC1A (PGC1α)): increased

Reference: patent US20240374546A1, “USES AND METHODS FOR PROMOTING INCREASED MITOCHONDRIAL MASS AND FUNCTION” (Brightseed, Inc., priority 2022, published 2024)
